Measurements reported in US10081606B2, “Heteroaryl compounds and uses thereof” (Celgene CAR LLC, priority 2010, dated 2018).
Where two headings read alike, the source gives them in different places.

Columns and labels:
[1] = target: EGFR L858R/T790M (H1975 cells) (Homo sapiens (Human), UniProt P00533, L858R/T790M); experiment: EGFR signaling immunoblot (1 hr) in H1975 cells; type: cell-based; conditions: signaling EC50, WT (A431) vs H1975
Experimental: (§1) A431 human epidermoid carcinoma, H1975 human NSCLC and HCC827 human NSCLC adenocarcinoma cells were obtained from the American Type Culture Center (Manassas, Va.). A431 cells were grown in DMEM (Invitrogen, Carlsbad, Calif.) supplemented with 10% FBS (HyClone, South Logan, Utah) and 1% Penicillin-Streptomycin (P/S, Lonza, Walkersville, Md.).
(§2) All primary antibodies were obtained from Cell Signaling (Danvers, Mass.) and used at 1:1000. Secondary antibodies were used at 1:10,000. Goat anti-mouse IgG IRDye 800CW antibody was obtained from LiCor Biosciences (Lincoln, Nebr.) and goat anti-rabbit IgG Alexa Fluor 680 was obtained from Invitrogen.
(§3) Cells were grown in 12-well plates (Corning, Coring, N.Y.) to 90% confluence and then incubated in low-serum (0.1% FBS) media for 16-18 hr. […] A431 cells were then stimulated with 50 ng/ml EGF (Peprotech, Rocky Hill, N.J.) for 15 min. After treatment, cell monolayers were washed with cold PBS (Invitrogen) and immediately lysed by scrapping into 60 uL cold Cell Extraction Buffer (Invitrogen) supplemented with Complete Protease inhibitors (Roche, Indianapolis, Ind.) and PhosphoSTOP (Roche) phosphatase inhibitors.
(§4) Phospho-protein signals were quantitated using Odyssey Infrared Imaging (Li-Cor Biosciences).
Blots were normalized as indicated above. […] Normalized data was fitted using a sigmoidal curve analysis program (Graph Pad Prism version 5) with variable Hill slope to determine the EC50 values.

[2] = target: pEGFR in H1975 cells (Homo sapiens (Human), UniProt P00533, L858R/T790M); conditions: 500 nM for 1 hr, 0-24 hr
[3] = target: EGFR delE746-A750 (HCC827 cells) (Homo sapiens (Human), UniProt P00533, DEL746-750); experiment: EGFR signaling immunoblot (1 hr) in HCC827 cells; type: cell-based; conditions: signaling EC50, WT (A431) vs HCC827
Experimental: as §1, §2, §3, §4
Blots were normalized as indicated above. […]

[4] = tested on: A431 cells (WT EGFR); experiment: Cell proliferation (CellTiter Glo, 72 hr), A431; type: cell-based; conditions: Homo sapiens, A-431
Experimental: as §1
(§5) Growth inhibition (GI50) values were determined by Graph Pad Prism.

[5] = tested on: HCC827 cells (EGFR delE746-A750); experiment: Cell proliferation (CellTiter Glo, 72 hr), HCC827; type: cell-based, human; conditions: for GI50: Homo sapiens; for Ratio WT/mutant: proliferation GI50, WT (A431) vs HCC827
Experimental: as §1, §5

[6] = tested on: H1975 cells (EGFR L858R/T790M); experiment: Cell proliferation (CellTiter Glo, 72 hr), H1975; type: cell-based, human; conditions: for GI50: Homo sapiens, NCI-H1975; for Ratio WT/mutant: proliferation GI50, WT (A431) vs H1975
Experimental: as §1, §5

[7] = target: T1, EGFR T790M/L858R (Homo sapiens (Human), UniProt P00533, L858R/T790M); conditions: for covalent modification of EGFR T790M/L858R: MS analysis
[8] = target: T1, EGFR T790M/L858R; experiment: Omnia biochemical assay, EGFR-T790M/L858R; conditions: biochemical IC50, WT EGFR vs T790M/L858R
[9] = A431 cells, 72 hr, read-out: WT EGFR GI50
[10] = Table 2, A431 cells (WT EGFR), read-out: Comparative GI50, A431
[11] = HCC827 cells, 72 hr, read-out: HCC827 GI50
[12] = Table 2, HCC827 cells (delE746-A750), read-out: Comparative GI50, HCC827
[13] = H1975 cells, 72 hr, read-out: H1975 GI50
[14] = Table 2, H1975 cells (L858R/T790M), read-out: Comparative GI50, H1975

Row | GI50 [4, 9] | GI50 [5, 11] | GI50 [6, 13] | SMILES | Ratio WT/mutant [5] | Ratio WT/mutant [6] | other results
1 | > 1000 nM | 10 to 100 nM | 100 to 500 nM | C=CC(=O)Nc1cccc(Nc2nc(Nc3ccccc3OC)ncc2C(F)(F)F)c1 [Compound I-1, N-(3-(2-(2-methoxyphenylamino)-5-(trifluoromethyl)pyrimidin-4-ylamino)phenyl)acrylamide] | >20 | >10 | Ratio WT/mutant [1]: >50; duration of action after washout (pEGFR inhibition) [2]: prolonged duration of action; Ratio WT/mutant [3]: >50; GI50 [4, 10]: > 1000 nM; GI50 [5, 12]: 10 to 100 nM; GI50 [6, 14]: 100 to 500 nM; time to complete modification of EGFR T790M/L858R ([7]; 10-fold excess of compound): ≤ 30 min; mass shift as percent of compound mass ([7]; 10-fold excess of compound, MALDI): 113%; covalent modification of EGFR T790M/L858R [7]: completely modifies
2 | > 1000 nM | 100 to 500 nM | 100 to 500 nM | C=CC(=O)Nc1cccc(Nc2nc(Nc3ccc(OC)c(OC)c3OC)ncc2Cl)c1 [Compound I-4, N-(3-(5-chloro-2-(2,3,4-trimethoxyphenylamino)pyrimidin-4-ylamino)phenyl)acrylamide] | – | – | –
3 | > 1000 nM | 100 to 500 nM | > 1000 nM | C=CC(=O)Nc1cccc(Nc2nc(Nc3ccc(OC)c(OC)c3OC)ncc2Br)c1 [Compound I-5, N-(3-(5-bromo-2-(2,3,4-trimethoxyphenylamino)pyrimidin-4-ylamino)phenyl)acrylamide] | >20 | >1 | Ratio WT/mutant [1]: >50
4 | > 1000 nM | 500 to 1000 nM | 500 to 1000 nM | C=CC(=O)Nc1cccc(Oc2nc(Nc3cccc(OC)c3OC)ncc2Br)c1 [Compound I-6, N-(3-(5-bromo-2-(2,3-dimethoxyphenylamino)pyrimidin-4-yloxy)phenyl)acrylamide] | >1 | >1 | –
5 | > 1000 nM | 100 to 500 nM | > 1000 nM | C=CC(=O)Nc1cccc(Oc2nc(Nc3ccc(OC)c(OC)c3OC)ncc2Br)c1 [Compound I-8, N-(3-(5-bromo-2-(2,3,4-trimethoxyphenylamino)pyrimidin-4-yloxy)phenyl)acrylamide] | – | – | –
6 | > 1000 nM | 100 to 500 nM | 100 to 500 nM | C=CC(=O)Nc1cccc(Oc2nc(Nc3ccc(OC)cc3OC)ncc2C(F)(F)F)c1 [Compound I-9, N-(3-(2-(2,4-dimethoxyphenylamino)-5-(trifluoromethyl)pyrimidin-4-yloxy)phenyl)acrylamide] | – | – | –
7 | > 1000 nM | 100 to 500 nM | 100 to 500 nM | C=CC(=O)Nc1cccc(Oc2nc(Nc3ccc(OC)c(OC)c3OC)ncc2C(F)(F)F)c1 [Compound I-10, N-(3-(5-(trifluoromethyl)-2-(2,3,4-trimethoxyphenylamino)pyrimidin-4-yloxy)phenyl)acrylamide] | >10 | >10 | Ratio WT/mutant [1]: >50
8 | > 1000 nM | 10 to 100 nM | 100 to 500 nM | C=CC(=O)Nc1cccc(Nc2nc(Nc3ccc(OC)c(OC)c3OC)ncc2C(F)(F)F)c1 [Compound I-11, N-(3-(5-(trifluoromethyl)-2-(2,3,4-trimethoxyphenylamino)pyrimidin-4-ylamino)phenyl)acrylamide] | >40 | >10 | Ratio WT/mutant [1]: >50; Ratio WT/mutant [3]: >5; GI50 [4, 10]: > 1000 nM; GI50 [5, 12]: 10 to 100 nM; GI50 [6, 14]: 100 to 500 nM
9 | > 1000 nM | 100 to 500 nM | 500 to 1000 nM | C=CC(=O)Nc1cccc(Oc2nc(Nc3ccc(OC)cc3OC)ncc2Br)c1 [Compound I-13, N-(3-(5-bromo-2-(2,4-dimethoxyphenylamino)pyrimidin-4-yloxy)phenyl)acrylamide] | – | – | –
10 | – | – | – | C=CC(=O)Nc1cccc(Nc2nc(Nc3cccc(OC)c3OC)ncc2Br)c1 [Compound I-14, N-(3-(5-bromo-2-(2,3-dimethoxyphenylamino)pyrimidin-4-ylamino)phenyl)acrylamide] | – | – | Ratio WT/mutant [8]: >50
11 | > 1000 nM | 100 to 500 nM | > 1000 nM | C=CC(=O)Nc1cccc(Oc2nc(Nc3ccc(OC)cc3OC)ncc2Cl)c1 [Compound I-15, N-(3-(5-chloro-2-(2,4-dimethoxyphenylamino)pyrimidin-4-yloxy)phenyl)acrylamide] | – | – | –
12 | > 1000 nM | 500 to 1000 nM | > 1000 nM | C=CC(=O)Nc1cccc(Nc2nc(Nc3cccc(OC)c3OC)ncc2C(F)(F)F)c1 [Compound I-16, N-(3-(2-(2,3-dimethoxyphenylamino)-5-(trifluoromethyl)pyrimidin-4-ylamino)phenyl)acrylamide] | – | – | –
13 | – | – | – | C=CC(=O)Nc1cccc(Oc2nc(Nc3cccc(OC)c3OC)ncc2Cl)c1 [Compound I-17, N-(3-(5-chloro-2-(2,3-dimethoxyphenylamino)pyrimidin-4-yloxy)phenyl)acrylamide] | – | – | Ratio WT/mutant [8]: >35
14 | > 1000 nM | 500 to 1000 nM | > 1000 nM | C=CC(=O)Nc1cccc(Nc2nc(Nc3ccccc3OC)ncc2Cl)c1 [Compound I-18, N-(3-(5-chloro-2-(2-methoxyphenylamino)pyrimidin-4-ylamino)phenyl)acrylamide] | >5 | >1 | –
15 | > 1000 nM | 100 to 500 nM | > 1000 nM | C=CC(=O)Nc1cccc(Oc2nc(Nc3ccccc3OC)ncc2F)c1 [Compound I-19, N-(3-(5-fluoro-2-(2-methoxyphenylamino)pyrimidin-4-yloxy)phenyl)acrylamide] | >10 | >1 | –
16 | > 1000 nM | 100 to 500 nM | > 1000 nM | C=CC(=O)Nc1cccc(Nc2nc(Nc3ccc(OC)cc3OC)ncc2Br)c1 [Compound I-20, N-(3-(5-bromo-2-(2,4-dimethoxyphenylamino)pyrimidin-4-ylamino)phenyl)acrylamide] | >10 | >1 | –
17 | > 1000 nM | 500 to 1000 nM | > 1000 nM | C=CC(=O)Nc1cccc(Nc2nc(Nc3ccc(OC)cc3OC)ncc2Cl)c1 [Compound I-21, N-(3-(5-chloro-2-(2,4-dimethoxyphenylamino)pyrimidin-4-ylamino)phenyl)acrylamide] | >5 | >1 | Ratio WT/mutant [1]: >5
18 | > 1000 nM | 500 to 1000 nM | 500 to 1000 nM | C=CC(=O)Nc1cccc(Nc2nc(Nc3ccccc3OC)ncc2Br)c1 [Compound I-22, N-(3-(5-bromo-2-(2-methoxyphenylamino)pyrimidin-4-ylamino)phenyl)acrylamide] | – | – | –

Row | SMILES | GI50 [4, 9] | GI50 [5, 11] | GI50 [6, 13] | Ratio WT/mutant [5] | Ratio WT/mutant [6] | other results
19 | C=CC(=O)Nc1cccc(Oc2nc(Nc3ccccc3OC)ncc2C(F)(F)F)c1 [Compound I-2, N-(3-(2-(2-methoxyphenylamino)-5-(trifluoromethyl)pyrimidin-4-yloxy)phenyl)acrylamide] | > 1000 nM | 100 to 500 nM | > 1000 nM | – | – | duration of action after washout (pEGFR inhibition) [2]: prolonged duration of action; covalent modification of EGFR T790M/L858R [7]: covalently modify
20 | C=CC(=O)Nc1cccc(Oc2nc(Nc3cccc(OC)c3OC)ncc2C(F)(F)F)c1 [Compound I-23, N-(3-(2-(2,3-dimethoxyphenylamino)-5-(trifluoromethyl)pyrimidin-4-yloxy)phenyl)acrylamide] | > 1000 nM | > 1000 nM | > 1000 nM | – | – | –
